Test results taken from US12180187B2, “1-phenyl-5-azinylpyrazolyl-3-oxyalkyl acids and their use for controlling unwanted plant growth” (BAYER AKTIENGESELLSCHAFT, priority 2019, dated 2024).

Assays:
ALOMY [1] = assay: Pre-emergence action at 320 g/ha against ALOMY; format: in vivo, Alopecurus myosuroides; settings: scored visually after about 3 weeks vs untreated controls (100% = plants have died)
Summary of the method: (§1)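 Visual scoring in percent against untreated controls, about 3 weeks after treatment, where 100% means dead plants and 0% means no difference. Compounds were applied as aqueous suspension or emulsion (WP or EC, plus 0.5% additive) onto soil covering freshly sown seeds, at 600 l/ha water.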

ECHGC = assay: Pre-emergence action at 320 g/ha against ECHGC; format: in vivo, Echinochloa crus-galli; settings: visual scoring after about 3 weeks vs untreated controls
Text: (§2) b) Seeds of monocotyledonous and dicotyledonous weed plants and crop plants are placed in plastic or organic planting pots and covered with soil. The compounds of the invention, formulated in the form of wettable powders (WP) or as emulsion concentrates (EC), are then applied onto the surface of the covering soil as aqueous suspension or emulsion with addition of 0.5% additive at a water application rate of 600 l/ha (converted). After the treatment, the pots are placed in a greenhouse and kept under good growth conditions for the trial plants. After about 3 weeks, the effect of the preparations is scored visually in comparison with untreated controls as percentages. For example, 100% activity=the plants have died, 0% activity=like control plants. Tables 13 to 26 below show the effects of selected compounds of the general formula (I) on various harmful plants and at an application rate corresponding to 320 g/ha, which were obtained by the experimental procedure mentioned above.

POLCO = assay: Pre-emergence action at 320 g/ha against POLCO; format: in vivo, Fallopia convolvulus (Polygonum convolvulus); settings: visual scoring after about 3 weeks vs untreated controls
Summary of the method: as §1

VERPE [2] = assay: Pre-emergence action at 320 g/ha against VERPE; format: in vivo, Veronica persica; settings: visual scoring after about 3 weeks vs untreated controls
Text: as §2

VIOTR = assay: Pre-emergence action at 320 g/ha against VIOTR; format: in vivo, Viola tricolor; settings: dosage 320 g/ha
Summary of the method: as §1

SETVI [3] = assay: Pre-emergence action at 320 g/ha against SETVI; format: in vivo, Setaria viridis; settings: visual scoring after about 3 weeks vs untreated controls
Text: as §2

AVEFA = assay: Pre-emergence action at 320 g/ha against AVEFA; format: in vivo; settings: visual scoring after about 3 weeks vs untreated controls
Text: as §2

AMARE [4] = assay: Pre-emergence action at 320 g/ha against AMARE; format: in vivo, Amaranthus retroflexus; settings: visual scoring after about 3 weeks vs untreated controls
Summary of the method: as §1

MATIN [5] = assay: Pre-emergence action at 320 g/ha against MATIN; format: in vivo, Tripleurospermum inodorum (Matricaria inodora); settings: visual scoring after about 3 weeks vs untreated controls
Text: as §2

LOLRI [6] = assay: Pre-emergence action at 320 g/ha against LOLRI; format: in vivo, Lolium rigidum; settings: visual scoring after about 3 weeks vs untreated controls
Text: as §2

STEME = assay: Pre-emergence action against STEME, 1280 g/ha; format: in vivo, Stellaria media; settings: scored visually after about 3 weeks vs untreated controls (100% = plants have died)
Summary of the method: (§3)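 Percent herbicidal effect, judged by eye relative to untreated pots around 3 weeks after soil-surface treatment. Application: formulated compound in water, 600 L/ha, 0.5% additive, on soil over sown seeds; greenhouse.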

VERPE [7] = assay: Post-emergence action against VERPE, 1.28 kg/ha; format: in vivo, Veronica persica; settings: dosage 1280 g/ha, visual rating about 3 weeks after treatment vs untreated controls (100% = plants died)
Summary of the method: (§4)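 Greenhouse-grown weeds (sandy loam, twin-sown pots) were treated 2–3 weeks post-sowing at one leaf. The spray was an aqueous WP/EC preparation plus 0.5% additive, applied at 600 L/ha. Scoring was visual at ~3 weeks, 0–100% versus untreated controls.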

KCHSC = assay: Post-emergence action against KCHSC, 1.28 kg/ha; format: in vivo, Bassia scoparia; settings: dosage 1280 g/ha, visual rating about 3 weeks after treatment vs untreated controls (100% = plants died)
Procedure: • a) Seeds of mono- and dicotyledonous weed plants are placed in plastic pots in sandy loam soil (twin sowing with one species each of mono- or dicotyledonous weed plants per pot), covered with soil and cultivated in a greenhouse under controlled growth conditions. 2 to 3 weeks after sowing, the test plants are treated at the one-leaf stage. The compounds of the invention, formulated in the form of wettable powders (WP) or as emulsion concentrates (EC), are applied to the green parts of the plants as aqueous suspension or emulsion with addition of 0.5% additive at a water application rate equivalent to 600 litres per hectare. After the test plants have been kept in the greenhouse under optimum growth conditions for about 3 weeks, the activity of the preparations is rated visually in comparison to untreated controls. For example, 100% activity=the plants have died, 0% activity=like control plants. As shown by the results, compounds of the general formula (I) of the invention, in post-emergence treatment, have very good herbicidal efficacy (90% to 100% herbicidal action) against harmful plants such as Abutilon theophrasti, Digitaria sanguinalis, Echinochloa crus-galli, Matricaria inodora, Poa annua, at an application rate of 1.28 kg of active substance per hectare.

POAAN [8] = assay: Pre-emergence action against POAAN, 1280 g/ha; format: in vivo, Poa annua; settings: visual scoring after about 3 weeks vs untreated controls, 100% = plants have died, 0% = like control plants
Summary of the method: as §3

AMARE [9] = assay: Pre-emergence action against AMARE, 1280 g/ha; format: in vivo, Amaranthus retroflexus; settings: scored visually after about 3 weeks vs untreated controls (100% = plants have died)
Summary of the method: as §3

ABUTH = assay: Post-emergence action against ABUTH, 1.28 kg/ha; format: in vivo, Abutilon theophrasti; settings: dosage 1280 g/ha, visual rating about 3 weeks after treatment vs untreated controls (100% = plants died)
Summary of the method: as §4

AMARE [10] = assay: Post-emergence action against AMARE, 1.28 kg/ha; format: in vivo, Amaranthus retroflexus; settings: dosage 1280 g/ha, visual rating about 3 weeks after treatment vs untreated controls (100% = plants died)
Summary of the method: as §4

MATIN [11] = assay: Post-emergence action against MATIN, 1.28 kg/ha; format: in vivo, Tripleurospermum inodorum (Matricaria inodora); settings: dosage 1280 g/ha, visual rating about 3 weeks after treatment vs untreated controls (100% = plants died)
Summary of the method: as §4

SETVI [12] = assay: Pre-emergence action against SETVI, 1280 g/ha; format: in vivo, Setaria viridis; settings: visual scoring after about 3 weeks vs untreated controls, 100% = plants have died, 0% = like control plants
Summary of the method: as §3

LOLRI [13] = assay: Pre-emergence action against LOLRI, 1280 g/ha; format: in vivo, Lolium rigidum; settings: visual scoring after about 3 weeks vs untreated controls, 100% = plants have died, 0% = like control plants
Summary of the method: as §3

ALOMY [14] = assay: Post-emergence action against ALOMY, 1.28 kg/ha; format: in vivo, Alopecurus myosuroides; settings: dosage 1280 g/ha, visual rating about 3 weeks after treatment vs untreated controls
Summary of the method: as §4

MATIN [15] = assay: Pre-emergence action against MATIN, 1280 g/ha; format: in vivo, Tripleurospermum inodorum (Matricaria inodora); settings: scored visually after about 3 weeks vs untreated controls (100% = plants have died)
Summary of the method: as §3

POAAN [16] = assay: Post-emergence action against POAAN, 1.28 kg/ha; format: in vivo, Poa annua; settings: dosage 1280 g/ha, visual rating about 3 weeks after treatment vs untreated controls
Summary of the method: as §4

ALOMY [17] = assay: Pre-emergence action against ALOMY, 1280 g/ha; format: in vivo, Alopecurus myosuroides; settings: visual scoring after about 3 weeks vs untreated controls, 100% = plants have died, 0% = like control plants
Summary of the method: as §3

ECHCG = assay: Pre-emergence action against ECHCG, 1280 g/ha; format: in vivo, Echinochloa crus-galli; settings: visual scoring after about 3 weeks vs untreated controls, 100% = plants have died, 0% = like control plants
Summary of the method: as §3

DIGSA [18] = assay: Pre-emergence action against DIGSA, 1280 g/ha; format: in vivo, Digitaria sanguinalis; settings: visual scoring after about 3 weeks vs untreated controls, 100% = plants have died, 0% = like control plants
Summary of the method: as §3

VERPE [19] = assay: Pre-emergence action against VERPE, 1280 g/ha; format: in vivo, Veronica persica; settings: scored visually after about 3 weeks vs untreated controls (100% = plants have died)
Summary of the method: as §3

DIGSA [20] = assay: Post-emergence action against DIGSA, 1.28 kg/ha; format: in vivo, Digitaria sanguinalis; settings: dosage 1280 g/ha, visual rating about 3 weeks after treatment vs untreated controls
Summary of the method: as §4

| Compound | Pre-emergence action at 320 g/ha against ALOMY in % (ALOMY [1]) | Pre-emergence action against ECHGC in % (ECHGC) | Pre-emergence action against VERPE in % (VERPE [2]) | Pre-emergence action against VIOTR in % (VIOTR) | Pre-emergence action against AVEFA in % (AVEFA) | Pre-emergence action against AMARE in % (AMARE [4]) | Pre-emergence action against MATIN in % (MATIN [5]) | Pre-emergence action against LOLRI in % (LOLRI [6]) | Pre-emergence action against STEME (STEME) | Post-emergence action against VERPE (VERPE [7]) | Post-emergence action against KCHSC (KCHSC) | Pre-emergence action against POAAN (POAAN [8]) | Pre-emergence action against AMARE (AMARE [9]) | Pre-emergence action against LOLRI (LOLRI [13]) | Post-emergence action against ALOMY (ALOMY [14]) | Pre-emergence action against ALOMY (ALOMY [17]) | Pre-emergence action against DIGSA (DIGSA [18]) | further results |
| --- | --- | --- | --- | --- | --- | --- | --- | --- | --- | --- | --- | --- | --- | --- | --- | --- | --- | --- |
| COC(=O)C1CCCN1C(=O)COc1nn(-c2ccccc2F)c(-c2ccc(F)nc2)c1Br (stereo not drawn) [Example X-016] | 100% | 90% | 100% | 100% | 90% | 100% | 90% | 90% |  |  |  |  |  |  |  |  |  | Pre-emergence action against POLCO in % (POLCO): 80%; Pre-emergence action against SETVI in % (SETVI [3]): 100% |
| N#CCCNC(=O)COc1nn(-c2ccc(F)cc2F)c(-c2ccc(F)nc2)c1Br [Example X-029] |  |  |  |  |  |  |  |  | 90% | 100% | 90% | 100% | 100% |  |  |  |  | Post-emergence action against ABUTH (ABUTH): 90%; Post-emergence action against AMARE (AMARE [10]): 90% |
| N#CCCNC(=O)COc1nn(-c2ccccc2F)c(-c2ccc(F)nc2)c1Br [Example X-032] |  |  |  |  |  |  |  |  | 100% | 100% | 90% | 100% | 100% | 100% | 100% | 100% | 100% | Post-emergence action against MATIN (MATIN [11]): 90%; Pre-emergence action against SETVI (SETVI [12]): 100%; Pre-emergence action against MATIN (MATIN [15]): 100%; Post-emergence action against POAAN (POAAN [16]): 100%; Pre-emergence action against ECHCG (ECHCG): 100%; Pre-emergence action against VERPE (VERPE [19]): 100% |
| CONC(=O)COc1nn(-c2ccc(F)cc2F)c(-c2ccc(F)cn2)c1Br [II-004] |  |  |  |  |  |  |  |  |  | 100% | 90% | 100% |  | 90% | 100% | 100% | 100% | Post-emergence action against DIGSA (DIGSA [20]): 100% |
| COC(=O)[C@@H](C)Oc1nn(-c2ccccc2)c(-c2cccnc2)c1Cl [VII-041] | 90% | 80% | 100% | 80% | 80% | 100% | 100% | 90% |  |  |  |  |  |  |  |  |  |  |
